In brackets after ≈: the same amount, converted by molar mass. Where two headings read alike, the source gives them in different places.
Key:
[1] = Release of small molecules from polymeric cyclodextrin-containing LbL films in phosphate buffer (fluorescence spectroscopy); type: physicochemical; conditions: 20 bilayers; for Release Rate: from poly A3/poly(BCD) films, phosphate buffer pH 7.4
Protocol: Release profiles were investigated by monitoring the release of the small molecule using a fluorimeter and the degradation of non-radiolabeled films. For drug release experiments, 20 bilayer films were constructed using carboxymethylbeta-cyclodextrin polymer:drug conjugate solution. The deposition solutions were prepared by combining 25 μM carboxymethylbeta-cyclodextrin polymers solution in 0.1 M sodium acetate buffer (1 Mn=8,000), with the various small molecules. After fabrication, each twenty bilayer film was immersed in 10 mL phosphate buffer solution (pH 7.4, 137 mM NaCl, 2.7 mM KCl, 10 mM Na2HPO4). A 1 mL sample was extracted at various time points and analyzed via fluorescence spectroscopy. Degradation vials were tightly capped between sample extractions to prevent evaporation of the buffer solution. Raw spectrum data were converted to micrograms (μg) of drug released using a calibration curve for a given molecule at a defined emission wavelength.
Poly(BCD)-prodan inclusion complexes were made by dissolving prodan in poly(BCD) as described for poly(BCD)-ciprofloxacin inclusion complexes in Example 3. (Poly 1/poly(BCD)-prodan)20 films were constructed by layer-by-layer deposition and prodan release studies were conducted as described in Example 1.
Formation of poly(BCD): drug inclusion complexes and film construction were achieved by methods as described in Examples 1-3; release studies were performed as described in Example 4. Solubility values and complexation coefficients were determined and/or calculated according to previously published methods (Brewster et al. 2007. “Cyclodextrins as pharmaceutical solubilizers.” Advanced Drug Delivery. 59: 645-666).

cyclooxygenase (COX) = experiment: Inhibition of cyclooxygenase by film release buffer in A549 cells, prostaglandin E2 concentration measured; type: cell-based, human; conditions: A549 cells exposed to aliquots of release buffer, buffer replaced every 24 hours
Description: To determine if polymeric cyclodextrin alters drug activity, the inhibition of cyclooxygenase (COX) by diclofenac was investigated. COX is the rate limiting enzyme in the production of prostaglandins, which are important in homeostasis and inflammatory pathways (T. D. Warner et al., Proceedings of the National Academy of Sciences of the United States of America 1999, 96, 9966). A549 human lung carcinoma cells were exposed to aliquots of release buffer, and prostaglandin E2 concentration was measured. In the experiment, the release buffer was replaced every 24 hours, so that time points measured the activity of the drug released during each specific 24 hour period. […] The approach here is a utilization of a charged polymeric carrier capable of facile reversible complexation with the drug of choice in alternation with a degradable polyion. Charged cyclodextrin polymers were used for the trapping of cyclodextrin-drug complexes in stable, surface eroding films capable of drug release within the cyclodextrin carrier without altering activity. […] This technology can be applied to nanomedicine coatings for applications in personalized medicine, transdermal delivery, medical devices, nanoparticulate carriers, prosthetic implants, as well as small molecules for imaging, agriculture, and basic scientific research.

[2] = Solubility of drugs in water and complexed with cyclodextrins; type: physicochemical
[3] = Complexation coefficients of drugs with cyclodextrins; type: physicochemical; conditions: calculated from solubility values
[4] = Release of 14C-dextran sulfate from LbL films in phosphate buffer (scintillation counting); type: physicochemical; conditions: films built with poly A3, 20 bilayers, phosphate buffer pH 7.4; approximately linear kinetics
Protocol: Release profiles were investigated by monitoring the release of ^14C-dextran sulfate and the degradation of non-radiolabeled films. For drug release experiments, 20 bilayer radiolabeled films were constructed using ^14C-dextran sulfate solution. The radiolabled deposition solutions were prepared by combining ^14C-dextran sulfate (1.5 mCi/g, Mn=8,000), unlabeled dextran sulfate (Mn=8,000), and 100 mM acetate buffer to yield a total concentration of dextran sulfate (unlabeled plus labeled) to 2 mg/mL (1 μCi/mL ^14C). After fabrication, each twenty bilayer film was immersed in 30 mL phosphate buffer solution (pH 7.4, 137 mM NaCl, 2.7 mM KCl, 10 mM Na2HPO4). A 1 mL sample was extracted at various time points and analyzed via scintillation counting. Scintillation counting was performed on a Tri-carb liquid scintillation counter (Model U2200) and the amount of radiolabel in each sample vial was measured using ^14C protocol. Degradation vials were tightly capped between sample extractions to prevent evaporation of the buffer solution. Raw data (disintegrations per minute, DPM) were converted to micrograms (μg) of drug released using the conversion factor 2.2×10^6 DPM=1 μCi, the specific radioactivity of the drug, and knowledge of the ratio of total drug to labeled drug in the deposition solution.

[5] = drug complexed with cyclodextrins, aqueous with cosolvent or surfactant or cyclodextrin, read-out: St, solubility complexed with cyclodextrins

For `O=C(O)c1cn(C2CC2)c2cc(N3CCNCC3)c(F)cc2c1=O` [Ciprofloxacin], the “time through which ciprofloxacin continued to be released (latest time point tested)” value ([1]; poly 1/poly(BCD)-ciprofloxacin films, phosphate buffer) was ≥ 69.3 h.

In the case of `O=C(O)Cc1ccccc1Nc1c(Cl)cccc1Cl` [Diclofenac], the “activity of released drug: COX inhibition, suppressed prostaglandin production” value (cyclooxygenase (COX)) is reported as “highly active”, the “Release Rate” value [1] is reported as 5 ng/h and the solubility [2, 5] is reported as 2.8 mg/mL (≈ 9450 µM). The solubility ([2]; in water, read-out: S0, solubility in water) was 0.002 mg/mL (≈ 6.75 µM).

With `CC(C(=O)O)c1ccc(-c2ccccc2)c(F)c1` (stereo not drawn) [Flurbiprofen] the “Kc, complexation coefficient” value [3] was 4930 M⁻¹, the “Release Rate” value [1] was 4 ng/h and the solubility [2, 5] was 0.54 mg/mL (≈ 2210 µM). For the same molecule, the “S0, solubility in water” value ([2]; in water) was 0.008 mg/mL.

In the case of `COc1ccc2cc([C@H](C)C(=O)O)ccc2c1` [Naproxen], the “Kc, complexation coefficient” value [3] is reported as 4300 M⁻¹ and the “Release Rate” value [1] is reported as 1 ng/h.

With dextran sulfate the “time span over which dextran sulfate continued to be released” value [4] was “at least 8 days”.

Reference: patent publication US9198875B2, “Controlled delivery of bioactive agents from decomposable films” (Massachusetts Institute of Technology, priority 2008, dated 2015)
